Measurements reported in US12331046B2, “CTPS1 inhibitors and uses thereof” (Nimbus Clotho, Inc., priority 2020, dated 2025).

Target: human CTPS1 (Homo sapiens (Human), UniProt P17812)
Assay: hCTPS1 biochemical assay (ADP-Glo)
Settings: hCTPS1 25 nM, ATP 120 uM, UTP 160 uM, GTP 60 uM, L-Glutamine 100 uM, 25 degrees C

human CTPS1, sequence (P17812 whole entry): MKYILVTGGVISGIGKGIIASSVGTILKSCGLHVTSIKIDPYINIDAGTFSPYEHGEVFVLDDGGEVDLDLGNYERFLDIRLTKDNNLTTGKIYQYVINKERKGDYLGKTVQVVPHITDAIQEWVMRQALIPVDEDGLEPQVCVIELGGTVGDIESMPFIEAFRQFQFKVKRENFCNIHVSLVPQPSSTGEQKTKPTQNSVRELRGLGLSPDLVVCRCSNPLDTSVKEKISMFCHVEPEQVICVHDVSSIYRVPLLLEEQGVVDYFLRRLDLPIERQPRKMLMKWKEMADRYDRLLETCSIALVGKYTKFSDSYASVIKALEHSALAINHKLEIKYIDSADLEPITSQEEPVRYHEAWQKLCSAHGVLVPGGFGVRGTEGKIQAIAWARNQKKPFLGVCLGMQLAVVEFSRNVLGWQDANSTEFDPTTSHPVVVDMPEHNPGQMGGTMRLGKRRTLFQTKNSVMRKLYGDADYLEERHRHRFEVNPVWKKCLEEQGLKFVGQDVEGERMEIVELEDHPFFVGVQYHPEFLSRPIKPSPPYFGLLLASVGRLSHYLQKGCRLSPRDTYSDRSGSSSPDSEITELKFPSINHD

Row | IC50 [nM] | SMILES
1 | < 100 | CCOc1cncc(-c2cnc(C(=O)N[C@H](CCN3CCOCC3)c3cc(NS(=O)(=O)C4CC4)ccn3)s2)n1 [I-164, (R)—N-(1-(4-(cyclopropanesulfonamido)pyridin-2-yl)-3-morpholinopropyl)-5-(6-ethoxypyrazin-2-yl)thiazole-2-carboxamide]
2 | < 100 | CCOc1cncc(-c2cnc(C(=O)N[C@H](C)c3cccc(NS(=O)(=O)C(F)F)c3)s2)n1 [I-272, N-[(1R)-1-[3-(difluoromethanesulfonamido)phenyl]ethyl]-5-(6-ethoxypyrazin-2-yl)-1,3-thiazole-2-carboxamide]
3 | ≥ 1000 | CCOc1cncc(-c2cnc(C(=O)N[C@@H](CCN(C)C)c3c(F)ccc(NS(=O)(=O)C4CC4)c3F)s2)n1 (single isomer, unassigned) [I-125]
4 | 100 to 1000 | CCOc1cncc(-c2ccc(C(=O)NCc3ccnc(NS(=O)(=O)C4CC4)c3)cc2)n1 [I-17, N-((2-(cyclopropanesulfonamido)pyridin-4-yl)methyl)-4-(6-ethoxypyrazin-2-yl)benzamide]
5 | ≥ 1000 | CCOc1cncc(-c2cnc(C(=O)N[C@H](CCN(C)C)c3cccc(NS(=O)(=O)C4CC4)c3)s2)n1 (single isomer, unassigned) [I-143]
6 | 100 to 1000 | CCOc1cncc(-c2cnc(C(=O)NCc3cc(NS(=O)(=O)C4CC4)ccn3)c(CN(C)C)c2)n1 [I-229]
7 | < 100 | CCOc1cncc(-c2cnc(C(=O)N[C@@H](CN3CCC(N(C)C)CC3)c3cc(NS(=O)(=O)C4CC4)ccn3)s2)n1 (single isomer, unassigned) [I-104]
8 | < 100 | CCOc1cncc(-c2ccc3c(c2)CN(C(CC)c2csc(NS(=O)(=O)C4CC4)n2)C3=O)n1 (stereo in doubt) [I-12, (R)—N-(4-(1-(5-(6-ethoxypyrazin-2-yl)-1-oxoisoindolin-2-yl)propyl)thiazol-2-yl)cyclopropanesulfonamide]
9 | < 100 | CCOc1cncc(-c2cnc(C(=O)N3CCC[C@@H]3c3cncc(NS(=O)(=O)C4CC4)c3)s2)n1 [I-225, (R)—N-(5-(1-(5-(6-ethoxypyrazin-2-yl)thiazole-2-carbonyl)pyrrolidin-2-yl)pyridin-3-yl)cyclopropanesulfonamide]
10 | < 100 | CCOc1cncc(-c2cnc(C(=O)N[C@@H](CN3CCCC3)c3cc(NS(=O)(=O)C4CC4)ccn3)s2)n1 [I-198, (S)—N-(1-(4-(cyclopropanesulfonamido)pyridin-2-yl)-2-(pyrrolidin-1-yl)ethyl)-5-(6-ethoxypyrazin-2-yl)thiazole-2-carboxamide]
11 | < 100 | CCOc1cncc(-c2cnc(C(=O)NC3(c4cc(NS(=O)(=O)C5CC5)ccn4)CCOCC3)s2)n1 [I-132]
12 | 100 to 1000 | CCOc1cncc(-c2ccc(C(=O)NCc3cccc(NS(=O)(=O)C4CC4)c3)nc2)n1 [I-18, N-(3-(cyclopropanesulfonamido)benzyl)-5-(6-ethoxypyrazin-2-yl)picolinamide]
13 | < 100 | CCOc1cncc(-c2cnc(C(=O)N[C@H](c3cc(NS(=O)(=O)C4CC4)ccn3)[C@H]3CCOC3)s2)n1 (single isomer, unassigned) [I-95]
14 | < 100 | CCOc1cncc(-c2cnc(C(=O)N3CCOCC3c3cc(NS(=O)(=O)C4CC4)ccn3)s2)n1 (centres unmarked) [I-209, N-(2-{4-[5-(6-ethoxypyrazin-2-yl)-1,3-thiazole-2-carbonyl]morpholin-3-yl}pyridin-4-yl)cyclopropanesulfonamide]
15 | < 100 | CCOc1cncc(-c2cnc(C(=O)NC(CN3CCNCC3)c3cc(NS(=O)(=O)C4CC4)ccn3)s2)n1 (centres unmarked) [I-217, N-(1-(4-(cyclopropanesulfonamido)pyridin-2-yl)-2-(piperazin-1-yl)ethyl)-5-(6-ethoxypyrazin-2-yl)thiazole-2-carboxamide]
16 | < 100 | CCOc1cncc(-c2cnc(C(=O)NC(c3cc(NS(=O)(=O)C4CC4)ccn3)C3CCNCC3)s2)n1 (centres unmarked) [I-153, N-((4-(cyclopropanesulfonamido)pyridin-2-yl)(piperidin-4-yl)methyl)-5-(6-ethoxypyrazin-2-yl)thiazole-2-carboxamide]
17 | < 100 | CCOc1cncc(-c2cnc(C(=O)N[C@H](CN3C[C@@H]4C[C@H]3CO4)c3cc(NS(=O)(=O)C4CC4)ccn3)s2)n1 (single isomer, unassigned) [I-101]
18 | ≥ 1000 | CO[C@H]1CCN(c2cncc(-c3ccc(C(=O)NCc4cc(NS(=O)(=O)C5CC5)ccn4)cc3)n2)C1 (stereo in doubt) [I-45]
19 | < 100 | CCOc1cncc(-c2ccc(C(=O)NC3(c4cccc(NS(=O)(=O)C(F)F)c4)CC3)c(F)c2)n1 [I-267, N-[1-[3-(difluoromethanesulfonamido)phenyl]cyclopropyl]-4-(6-ethoxypyrazin-2-yl)-2-fluorobenzamide]
20 | 100 to 1000 | Cc1nc(C(=O)NCc2cc(NS(=O)(=O)C3CC3)ccn2)cnc1N1CCC[C@@H](C(F)(F)F)C1 [I-55]
21 | 100 to 1000 | O=C(NCc1cc(NS(=O)(=O)C2CC2)ccn1)c1ncc(-n2cnc3ccc(Cl)cc32)s1 [I-193, 5-(6-chloro-1H-benzo[d]imidazol-1-yl)-N-((4-(cyclopropanesulfonamido)pyridin-2-yl)methyl)thiazole-2-carboxamide]

Row | IC50 [nM] | SMILES
22 | < 100 | CCOc1cncc(-c2ccc(C(=O)NCc3cc(NS(=O)(=O)CC(F)(F)F)ccn3)cc2)n1 [I-65, 4-(6-ethoxypyrazin-2-yl)-N-((4-((2,2,2-trifluoroethyl)sulfonamido)pyridin-2-yl)methyl)benzamide]
23 | < 100 | CCOc1cncc(-c2cnc(C(=O)N[C@@H](CN3C[C@@H]4C[C@H]3CO4)c3cc(NS(=O)(=O)C4CC4)ccn3)s2)n1 (single isomer, unassigned) [I-102]
24 | ≥ 1000 | CCOc1cncc(-c2ccc(C(=O)N3CCC[C@@H]3c3cc(NS(=O)(=O)C4CC4)ccn3)nc2)n1 [I-80, N-[2-[(2R)-1-[5-(6-ethoxypyrazin-2-yl)pyridine-2-carbonyl]pyrrolidin-2-yl]pyridin-4-yl]cyclopropanesulfonamide]
25 | 100 to 1000 | CCOc1cncc(-c2cnc(C(=O)N3CCNCC3c3ccnc(NS(=O)(=O)C4CC4)n3)s2)n1 (centres unmarked) [I-181, N-(4-{1-[5-(6-ethoxypyrazin-2-yl)-1,3-thiazole-2-carbonyl]piperazin-2-yl}pyrimidin-2-yl)cyclopropanesulfonamide]
26 | < 100 | CCOc1cncc(-c2cnc(C(=O)N[C@@H](CCOC)c3cc(NS(=O)(=O)C4CC4)ccn3)s2)n1 [I-183, (S)—N-(1-(4-(cyclopropanesulfonamido)pyridin-2-yl)-3-methoxypropyl)-5-(6-ethoxypyrazin-2-yl)thiazole-2-carboxamide]
27 | < 100 | CCOc1cncc(-c2cnc(C(=O)N[C@H](CCN3CCCC3)c3cc(NS(=O)(=O)C4CC4)ccn3)s2)n1 [I-158, (R)—N-(1-(4-(cyclopropanesulfonamido)pyridin-2-yl)-3-(pyrrolidin-1-yl)propyl)-5-(6-ethoxypyrazin-2-yl)thiazole-2-carboxamide]
28 | < 100 | CCOc1cncc(-c2cnc(C(=O)N[C@@H](C[C@H]3CCCCN3)c3cc(NS(=O)(=O)C4CC4)ccn3)s2)n1 (single isomer, unassigned) [I-138]
29 | < 100 | CCOc1cncc(-c2cnc(C(=O)N[C@@H](CN(C)C)c3cc(NS(=O)(=O)C4CC4)ccn3)s2)n1 (single isomer, unassigned) [I-234]
30 | 100 to 1000 | CCOc1cncc(N2CCN(C(=O)NCc3cc(NS(=O)(=O)C4CC4)ccn3)CC2)n1 [I-27]
31 | ≥ 1000 | O=C(NC1(c2csc(NS(=O)(=O)C3CC3)n2)CC1)c1ccc2ccncc2c1 [I-7, N-(1-(2-(cyclopropanesulfonamido)thiazol-4-yl)cyclopropyl)isoquinoline-7-carboxamide]
32 | < 100 | CCOc1cncc(-c2cnc(C(=O)N[C@@H](CC3CCN(C)CC3)c3cc(NS(=O)(=O)C4CC4)ccn3)s2)n1 [I-99, (S)—N-(1-(4-(cyclopropanesulfonamido)pyridin-2-yl)-2-(1-methylpiperidin-4-yl)ethyl)-5-(6-ethoxypyrazin-2-yl)thiazole-2-carboxamide]
33 | < 100 | CCOc1cncc(-c2cnc(C(=O)N[C@H](C[C@H]3CCCCN3)c3cc(NS(=O)(=O)C4CC4)ccn3)s2)n1 [I-172, N—((R)-1-(4-(cyclopropanesulfonamido)pyridin-2-yl)-2-((R)-piperidin-2-yl)ethyl)-5-(6-ethoxypyrazin-2-yl)thiazole-2-carboxamide]
34 | < 100 | CCOc1cncc(-c2cnc(C(=O)N[C@@H](CN3[C@H](C)COC[C@@H]3C)c3cc(NS(=O)(=O)C4CC4)ccn3)s2)n1 (single isomer, unassigned) [I-109]
35 | < 100 | CCOc1cncc(-c2cnc(C(=O)N[C@H](CCCN(C)C)c3cc(NS(=O)(=O)C4CC4)ccn3)s2)n1 [I-156, (R)—N-(1-(4-(cyclopropanesulfonamido)pyridin-2-yl)-4-(dimethylamino)butyl)-5-(6-ethoxypyrazin-2-yl)thiazole-2-carboxamide]
36 | < 100 | CCOc1cncc(-c2sc(C(=O)NC(CC)c3cc(NS(=O)(=O)C4CC4)ccn3)nc2C)n1 (centres unmarked) [I-227]
37 | < 100 | CCOc1cncc(-c2cnc(C(=O)N[C@H](CCN(C)C)c3cc(NS(=O)(=O)C4CC4)ccn3)s2)n1 [I-189, (R)—N-(1-(4-(cyclopropanesulfonamido)pyridin-2-yl)-3-(dimethylamino)propyl)-5-(6-ethoxypyrazin-2-yl)thiazole-2-carboxamide]
38 | < 100 | CCOc1cncc(-c2cnc(C(=O)N[C@H](CN3CCOCC3)c3cc(NS(=O)(=O)C4CC4)ccn3)s2)n1 (single isomer, unassigned) [I-236]
39 | < 100 | CCOc1cncc(-c2cnc(C(=O)N[C@H](c3cc(NS(=O)(=O)C4CC4)ccn3)[C@@H]3CCOC3)s2)n1 (single isomer, unassigned) [I-94]
40 | 100 to 1000 | CCOc1cncc(-c2cnc(C(=O)N[C@@](C)(COC)c3cc(NS(=O)(=O)C4CC4)ccn3)s2)n1 [I-91, (R)—N-(2-(4-(cyclopropanesulfonamido)pyridin-2-yl)-1-methoxypropan-2-yl)-5-(6-ethoxypyrazin-2-yl)thiazole-2-carboxamide]
41 | < 100 | CCOc1cncc(-c2ccc(C(=O)NCc3cc(NS(=O)(=O)C(F)(F)F)ccn3)nc2)n1 [I-23, 5-(6-ethoxypyrazin-2-yl)-N-((4-((trifluoromethyl)sulfonamido)pyridin-2-yl)methyl) picolinamide]
